In patent US20130203805A1, “Methods for treating anemia using inhibitors of hypoxia-inducible factor (HIF) hydroxylase” (FIBROGEN, INC., priority 2001, published 2013):
Where two headings read alike, the source gives them in different places.

Format: in vivo, Sprague Dawley male rats
Conditions: rat, in vivo, ip
Description: The ability of a compound of the invention to treat anemia associated with post-ischemic acute renal failure was assayed using a procedure described by Vaziri et al. (1994, Am J Physiol 266(3 Pt 2):[…]-6.) Fifteen Sprague Dawley male rats (280-300 g) were obtained from Charles River Laboratories. On day 0, rats were treated by intraperitoneal injection with a single dose of saline (control; n=3) at 8 ml/kg, or cisplatin (CP; Bedford Laboratories, Bedford Ohio) at either 7 mg/kg (7 ml/kg; n=6) or 10 mg/kg (10 ml/kg; n=6). Blood samples (0.2 ml) were collected on days 5, 9, and 16 as follows. […] Blood samples were processed for hematocrit as described above to determine the degree of anemia produced in each animal. […] Blood samples (0.5 ml) were collected as described above immediately prior to treatment and 4 days after treatment initiation. Blood samples were analyzed for CBC and reticulocyte counts as described above. On day 9 after initiation of oral treatment, a blood sample (0.1 ml) was collected and processed for hematocrit as described above.

N.N.[Cl][Pt][Cl] [CP, cisplatin, reference compound]
reduction of hematocrit relative to controls (7 mg/kg): 14%
reduction of hematocrit relative to controls (10 mg/kg): 22%
